{"source": "patent US20170137417A1", "about": "(priority 2014, published 2017)", "details": "Log P, [a] LC-UV, acidic range", "description": "Measurement of Log P values was performed according to EEC directive 79/831 Annex V.A8 by HPLC (High Performance Liquid Chromatography) on reversed phase columns with the following methods:\n[a] Log P value is determined by measurement of LC-UV, in an acidic range, with 0.1% formic acid in water and acetonitrile as eluent (linear gradient from 10% acetonitrile to 95% acetonitrile).\nCalibration was done with straight-chain alkan2-ones (with 3 to 16 carbon atoms) with known Log P values (measurement of Log P values using retention times with linear interpolation between successive alkanones).", "data": [{"smiles": "C#CCOc1ccc(F)c(F)c1C1CC(c2csc(C3CCN(C(=O)Nc4cc(C)ccc4C)CC3)n2)=NO1", "note": "(stereo not shown) [Example I-3]", "values": [{"measurement": "chromatographic logP", "result": 3.45}]}]}
